Source: PMC8802628, “Selective activation of PFKL suppresses the phagocytic oxidative burst” (Cell, 2021)

How the values were obtained:
[1] = target: T1, PFKM+pocket (R315 to lysine) (Homo sapiens, UniProt P08237, R315K); assay: Recombinant PFKM+pocket activity assay; format: biochemical
T1 construct: made in house; host or cells: Sf9 insect cells (baculovirus)
T1 sequence (P08237 1-780 R315K): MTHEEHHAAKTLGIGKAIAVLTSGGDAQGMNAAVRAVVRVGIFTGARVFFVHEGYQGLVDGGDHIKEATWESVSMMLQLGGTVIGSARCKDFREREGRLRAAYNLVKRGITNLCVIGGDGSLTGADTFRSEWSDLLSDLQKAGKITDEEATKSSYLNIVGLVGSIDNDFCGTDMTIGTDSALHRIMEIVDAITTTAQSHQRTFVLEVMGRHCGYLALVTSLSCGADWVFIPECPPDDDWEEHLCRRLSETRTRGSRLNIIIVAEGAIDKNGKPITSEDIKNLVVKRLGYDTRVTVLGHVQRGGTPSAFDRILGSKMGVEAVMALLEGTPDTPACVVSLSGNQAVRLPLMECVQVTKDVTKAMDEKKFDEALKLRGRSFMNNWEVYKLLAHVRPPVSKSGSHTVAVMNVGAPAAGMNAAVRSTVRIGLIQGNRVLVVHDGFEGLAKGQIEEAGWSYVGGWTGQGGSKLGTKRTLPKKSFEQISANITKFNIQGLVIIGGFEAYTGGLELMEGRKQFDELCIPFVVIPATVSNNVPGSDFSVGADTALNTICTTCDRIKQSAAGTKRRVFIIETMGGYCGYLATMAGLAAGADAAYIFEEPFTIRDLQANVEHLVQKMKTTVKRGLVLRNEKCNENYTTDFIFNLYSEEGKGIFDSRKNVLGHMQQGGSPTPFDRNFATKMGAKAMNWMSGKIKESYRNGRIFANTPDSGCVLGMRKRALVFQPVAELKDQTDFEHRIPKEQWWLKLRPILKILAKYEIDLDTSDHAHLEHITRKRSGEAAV
Excerpt: (§1) Recombinant N-terminal His-tagged human PFKL (NP_002617), PFKM (NP_000280), and PFKP (NM_002627.4) were generated as described ([Webb et al., 2015], [2017]). Point mutants of PFK1 were generated using the QuikChange Lightning kit (Aligent).
His-tagged PFK1 was expressed and purified as described with slight modifications ([Webb et al., 2015], [2017]). Briefly, baculovirus was generated using the Bac-to-Bac Expression system (Invitrogen). PFK1 was expressed in 2-5 × 10^6 sf9 cells at a multiplicity of infection of two for 48 h. Cells were lysed in 20 mM HEPES, pH 7.5, 80 mM potassium phosphate, 1 mM 2-mercapentoethanol, 10% glycerol, 10 mM imidazole, and EDTA-free Protease Inhibitor Cocktail (Abcam) with a Dounce homogenizer. The soluble lysate was incubated with HisPur cobalt resin (ThermoFisher Scientific). The resin was washed with 5 bead volumes lysis buffer, 10 bead volumes lysis buffer containing 2 M NaCl, and 5 further bead volumes lysis buffer. PFK1 was eluted in lysis buffer containing 100 mM imidazole. Fractions containing protein were pooled, passed over a desalting column equilibrated in freezing buffer [20 mM HEPES pH 7.5, 1 mM DTT, 500 μM ammonium sulfate, 5% glycerol, 1 mM ATP, and 100 μM EDTA] and concentrated using an Amicon Ultracel-30K Centrifugal Filter Unit (MilliporeSigma). Protein was quantified using a Bradford Protein Assay kit (ThermoFisher Scientific), and aliquotes frozen in liquid nitrogen for storage at −80°C.
PFK1 activity was determined using the rate of FBP production via an auxiliary enzyme assay adapted to a 96-well format ([Brüser et al., 2012]; [Webb et al., 2015]). The auxiliary enzymes aldolase, triosephosphate isomerase, and glycerol phosphate dehydrogenase were purchased from MilliporeSigma as ammonium sulfate slurries and desalted using an Amicon Ultracel-10K Centrifugal Filter Unit. For assays containing FBP, the rate of ADP production was determined using the auxiliary enzymes pyruvate kinase (PK) and lactate dehydrogenase (LDH) (MilliporeSigma) in a buffer containing 250 μM phosphoenolpyruvic acid, […] NADH, 50 mM HEPES pH 7.5, 100 mM KCl, 1 mM DTT, and effector concentrations as described in the text. The temperature was equilibrated to 25°C for 5 min before initiating the reaction 10 mM MgCl2. Absorbance at 340 nm was measured using a Varioskan LUX Multimode microplate reader (ThermoFisher). Kinetic parameters were generated by nonlinear regression analysis using Prism (GraphPad Software) and are the mean of a minimum of three measurements from two independent preparations of protein. One unit of activity was defined as the amount of enzyme that catalyzed the formation of 1 μmol of fructose 1,6-bisphosphate per min at 25°C. […]

[2] = tested on: human peripheral blood neutrophils; assay: NETosis assay in human neutrophils (SYTOX Green, DNA area); format: cell-based
recombinant NE = target: T2, recombinant NE (Homo sapiens, UniProt P08246); assay: NE activity assay; format: biochemical
T2 construct: purchased Abcam ab91099
Protocol: NA-11 and LDC7559 were incubated at the indicated concentrations with 25 ng of recombinant NE for 20 min. NE activity was measured using a fluorescence NE activity assay kit (Abcam).

PFK1 = PFK1 activity in PMN lysates; format: cell-based, human; conditions: for activation-induced reduction in PFK1 activity: neutrophils treated with PMA, LPS, or cholesterol crystals
Protocol: PFK1 activity assays from neutrophil lysates were modified from Abrantes et al., 2012. Briefly, neutrophils (10^7) were cultured with 0.5 μM NA-11 for 30 min, and then stimulated with 50 nM PMA, 5 μg/mL cholesterol crystals, 10 μg/mL LPS or 25 μM nigericin for 30 min. Cells were lysed in 10 mM PBS, 1% Triton X-100, and 1 x EDTA-free protease inhibitor cocktail on ice for 10 min. The soluble protein lysates were quantified by BCA assay (Pierce) and adjusted to 0.3125 mg/mL with lysis buffer. Lysate (80 μL) was mixed with 100 μL 2x enzyme cocktail solution (100 mM Tris-HCL pH7.4, 10 mM MgCl2, 0.5 mM ATP, 0.3 mM NADH, 1.35 units/mL Aldolase, 10 units/mL Triose phosphate isomerase, 4 units/mL glycerophosphate dehydrogenase, 20 mM ammonium sulfate) equilibrated to reach room temperature for 5 min. 20 μL of Fructose-6-phosphate (40 mM) was added and the reaction monitored for NADH decrease (absorbance at 340 nm) every 30 s for 30 min. Specific activity is in pmoles FBP per min per mg lysate.

human PFKP = target: T3, human PFKP (Homo sapiens, UniProt Q01813); assay: Recombinant PFKP activity assay; format: biochemical; conditions: at concentrations up to 100 μM
T3 construct: made in house; host or cells: Sf9 insect cells (baculovirus)
Excerpt: as §1
His-tagged PFK1 was expressed and purified as described with slight modifications ([Webb et al., 2015], [2017]). Briefly, baculovirus was generated using the Bac-to-Bac Expression system (Invitrogen). PFK1 was expressed in 2-5 × 10^6 sf9 cells at a multiplicity of infection of two for 48 h. […] Protein was quantified using a Bradford Protein Assay kit (ThermoFisher Scientific), and aliquotes frozen in liquid nitrogen for storage at −80°C.
PFK1 activity was determined using the rate of FBP production via an auxiliary enzyme assay adapted to a 96-well format ([Brüser et al., 2012]; [Webb et al., 2015]). […] For assays containing FBP, the rate of ADP production was determined using the auxiliary enzymes pyruvate kinase (PK) and lactate dehydrogenase (LDH) (MilliporeSigma) in a buffer containing 250 μM phosphoenolpyruvic acid, […] NADH, 50 mM HEPES pH 7.5, 100 mM KCl, 1 mM DTT, and effector concentrations as described in the text. […] Absorbance at 340 nm was measured using a Varioskan LUX Multimode microplate reader (ThermoFisher). […]

[3] = PFKM+pocket, pH 7.0, 250 μM ATP

T3 sequence (Q01813 whole entry): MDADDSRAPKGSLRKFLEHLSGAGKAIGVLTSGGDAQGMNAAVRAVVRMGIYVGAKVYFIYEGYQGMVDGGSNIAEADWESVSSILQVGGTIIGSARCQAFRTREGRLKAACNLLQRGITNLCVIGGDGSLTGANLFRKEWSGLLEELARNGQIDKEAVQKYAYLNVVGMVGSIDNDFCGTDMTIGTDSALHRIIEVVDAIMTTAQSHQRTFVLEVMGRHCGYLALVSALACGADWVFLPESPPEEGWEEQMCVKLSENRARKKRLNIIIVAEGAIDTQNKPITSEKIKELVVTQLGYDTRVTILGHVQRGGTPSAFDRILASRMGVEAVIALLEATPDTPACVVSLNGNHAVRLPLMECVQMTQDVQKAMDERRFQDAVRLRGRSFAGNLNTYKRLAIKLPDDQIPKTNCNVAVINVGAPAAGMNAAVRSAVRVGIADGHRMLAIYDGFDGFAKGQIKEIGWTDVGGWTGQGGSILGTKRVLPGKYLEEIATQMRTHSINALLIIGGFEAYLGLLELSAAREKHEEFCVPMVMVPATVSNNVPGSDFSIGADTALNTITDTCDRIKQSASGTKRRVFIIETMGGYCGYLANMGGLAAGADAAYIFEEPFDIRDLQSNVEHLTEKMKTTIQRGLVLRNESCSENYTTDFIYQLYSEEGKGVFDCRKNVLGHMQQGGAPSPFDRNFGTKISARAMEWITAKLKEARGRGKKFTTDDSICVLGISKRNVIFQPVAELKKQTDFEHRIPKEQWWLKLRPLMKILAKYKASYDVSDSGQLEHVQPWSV
T2 sequence (P08246 30-267): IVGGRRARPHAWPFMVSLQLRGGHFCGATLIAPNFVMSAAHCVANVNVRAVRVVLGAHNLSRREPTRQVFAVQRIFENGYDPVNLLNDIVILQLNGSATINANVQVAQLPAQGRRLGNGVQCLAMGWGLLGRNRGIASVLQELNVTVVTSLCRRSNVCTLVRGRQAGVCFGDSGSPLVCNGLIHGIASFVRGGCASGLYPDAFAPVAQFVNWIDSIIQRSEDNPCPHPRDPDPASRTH

| SMILES | inhibition of recombinant NE (recombinant NE) | activation-induced reduction in PFK1 activity (PFK1) | activation of PFKP (human PFKP) | further results |
| --- | --- | --- | --- | --- |
| O=C(CO)[C@@H](O)[C@H](O)[C@H](O)COP(=O)(O)O [F6P, fructose 6-phosphate] |  |  |  | Vmax,F6P [1, 3]: 17.29 ± 0.93 micromoles FBP per minute per milligram PFK1; hF6P (Hill coefficient) [1, 3]: 3.64 ± 0.69 |
| CC(=O)Nc1ccc2c(c1)OCc1cc(-c3ccccc3C#CCCCO)nn1C2 [NA-11] | neither LDC7559 nor NA-11 inhibited recombinant NE | prevented | failed to activate | time of addition after PMA up to which NETosis was inhibited ([2]; compound added after PMA-induced activation): up to 1 h; effect on PFK1 activity in resting neutrophils (PFK1; resting neutrophils): minimal |
| CC(=O)Nc1ccc2c(c1)OCc1cc(-c3ccccc3)nn1C2 [NA-5] |  |  |  | EC50 ([1]; pH 7.0, 4.0 mM ATP, 1.0 mM F6P, mean ± SEM, read-out: EC50, activation of PFKM+pocket): 10.9 ± 1.28 nM |
| COc1ccccc1-c1cc2n(n1)Cc1ccc(NC(C)=O)cc1OC2 [LDC7559, reference compound] | neither LDC7559 nor NA-11 inhibited recombinant NE | prevented | failed to activate | NETosis in response to PMA ([2]; 10 μM compound, compared with DMSO vehicle): defective NETosis |
